Data: patent US9408856B2, “Topical steroidal formulations” (Temple University—Of The Commonwealth System of Higher …, priority 2008, dated 2016)
“Also recorded” adds a separate entry of the source.

Experiments:
[1] = test system: dexamethasone-induced thymic and splenic atrophy; settings: C3H/HeN mice; 60 mg/kg s.c. 3 days; single DEX dose 1.6 mg; Blauer et al. 1991; cited from earlier work
[2] = test system: dexamethasone-induced thymic and splenic atrophy; assay: Dexamethasone-induced thymic and splenic atrophy in mice; type: in vivo, CD-1 mice; settings: for protection against DEX-induced thymic and splenic atrophy: CD-1 mice
Description: Administration of dehydroepiandrosterone (DHEA, 60 mg/kg, s.c.) for three days partially reverse thymic and splenic atrophy induced by a single injection of dexamethasone (1.6 mg/mouse). In this experiment, the efficacy of either 10 mg/kg or 20 mg/kg DHEA administered s.c. versus the effect of 10 mg/kg or 20 mg/kg fluasterone was investigated.
5% Cremophor (polyethoxylated castor oil; Sigma Chemicals)-95% saline vehicle was prepared using 95 mL of sterile 0.9% NaCl (filtered through sterile 0.22 micron filter) and 5 mL of Cremophor. The Cremophor was dissolved by swirling for approximately 5 minutes.
Dexamethasone solutions were prepared by dissolving dexamethasone (Sigma Chemicals) in absolute ethanol. For example, 71.9 mg of dexamethasone was dissolved in 2.9 mL of absolute ethanol. In order to prevent precipitation, the solution was kept on a hotplate between injections.
For the 10 mg/kg suspension, 25.7 mg of DHEA was weighed out, transferred to a glass scintillation vial, and 10.3 mL of the Cremophor-saline vehicle was added. The DHEA suspension was homogenized using a Tissumizer at 80% power for 30 sec. The Tissumizer was rinsed with 70% ethanol prior to homogenization. After the 10 mg/kg DHEA suspension was homogenized the probe was rinsed 2× with 50 mL of absolute ethanol, then with 50 mL of 70% ethanol, and then dried with sterile gauze. For the 20 mg/kg DHEA suspension, 50.9 mg DHEA was suspended in 10.2 mL of Cremophor-saline vehicle.
19.4 mg of fluasterone was weighed out and transferred to a glass scintillation vial. 7.8 mL of Cremophor-saline vehicle was added to the vial and the contents of the vial were homogenized with a Tissumizer as described previously. Prior to preparing the 20 mg/kg fluasterone, the probe was rinsed 2× with 50 mL of absolute ethanol and 1× with 50 mL of 70% ethanol. For the 20 mg/kg suspension, 47.0 mg was weighed out and transferred to a glass scintillation vial. 9.4 mL of Cremophor-saline vehicle was added to the vial and the contents of the vial were homogenized with a Tissumizer as described above.
Female CD-1 mice, 43-45 days old, were obtained from Charles River Laboratories. The mice were housed 5 per cage in plastic shoebox cages with ad libitum access to Purina chow 5015 and water in the Pharmacy CAF with 12 hr of alternating light and darkness.
Prior to the experiment the mice were weighed, separated into 6 groups containing 5 mice each and treated as follows:
Mice were treated s.c. with 0.1 mL of 5% Cremophor-95% saline for three days. On the third day, the mice were also treated s.c. with 1.6 mg of dexamethasone dissolved in 0.06 mL of absolute. ethanol.
Mice were treated s.c. with 0.25 mg of DHEA suspended in 0.1 mL of 5% Cremophor-95% saline for three days. On the third day, the mice were also treated s.c. with 1.6 mg of dexamethasone dissolved in 0.06 mL of absolute ethanol.
Mice were treated s.c. with 0.5 mg of DHEA suspended in 0.1 mL of 5% Cremophor-95% saline for three days. On the third day, the mice were also treated s.c. with 1.6 mg of dexamethasone dissolved in 0.06 mL of absolute ethanol.
Mice were treated s.c. with 0.25 mg of fluasterone suspended in 0.1 mL of 5% Cremophor-95% saline for three days. On the third day, the mice were also treated s.c. with 1.6 mg of dexamethasone dissolved in 0.06 mL of absolute ethanol.
Mice were treated s.c. with 0.5 mg of fluasterone suspended in 0.1 mL of 5% Cremophor-95% saline for three days. On the third day, the mice were also treated s.c. with 1.6 mg of dexamethasone dissolved in 0.06 mL of absolute ethanol.
All s.c. injections were made in the nape. All mice were lightly anesthetized while the s.c. injections were done.
Twenty-four hours after dexamethasone treatment, the mice were euthanized by an overdose of isoflurane. The spleen and thymus were removed, cleaned of any adventitia, rinsed, blotted on filter paper, and weighed. […]

[3] = Table 12, 10 mg/kg s.c. 3 days + dexamethasone 1.6 mg s.c. on day 3, 24 h after dexamethasone
[4] = Table 12, 20 mg/kg s.c. 3 days + dexamethasone 1.6 mg s.c. on day 3, 24 h after dexamethasone
[5] = Table 14, micronized steroid 20 mg/kg + dexamethasone
[6] = Table 14, micronized steroid 60 mg/kg + dexamethasone

C[C@]12CC[C@H](O)CC1=CC[C@@H]1[C@@H]2CC[C@]2(C)C(=O)CC[C@@H]12 [DHEA, dehydroepiandrosterone, reference compound]
effect on DEX-induced thymic and splenic atrophy [1]: significantly reduces
protection against DEX-induced thymic and splenic atrophy ([2]; 10 mg/kg): inactive
protection against DEX-induced thymic and splenic atrophy ([2]; 20 mg/kg): no apparent protection; also recorded: inactive
protection against DEX-induced thymic and splenic atrophy ([2]; 60 mg/kg): significantly protected
Body Weight [2, 3]: 23.7 ± 1.0
Spleen wt [2, 3]: 46.4 ± 3.7
Spleen wt/BW [2, 3]: 2.0 ± 0.2
Thymus wt [2, 3]: 31.7 ± 2.6
Thymus wt/BW [2, 3]: 1.3 ± 0.2
Body Weight [2, 4]: 24.5 ± 2.1
Spleen wt [2, 4]: 51.4 ± 2.2
Spleen wt/BW [2, 4]: 2.1 ± 0.2
Thymus wt [2, 4]: 36.6 ± 5.2
Thymus wt/BW [2, 4]: 1.5 ± 0.2
Body Weight [2, 5]: 27.4 ± 4.0
Spleen wt [2, 5]: 56.8 ± 8.1
Spleen wt/BW [2, 5]: 2.1 ± 0.1
Thymus wt [2, 5]: 39.3 ± 4.1
Thymus wt/BW [2, 5]: 1.4 ± 0.1
Body Weight [2, 6]: 27.0 ± 3.1
Spleen wt [2, 6]: 79.9 ± 16.0
Spleen wt/BW [2, 6]: 3.0 ± 0.4
Thymus wt [2, 6]: 63.2 ± 7.8
Thymus wt/BW [2, 6]: 2.3 ± 0.2
Approximate Potency Compared to Fluasterone in Protecting Against DEX-induced Thymic and Splenic Involution ([2]; fluasterone = 1, mice): about ⅙
